Measurements published in patent US11278533B2, “Animal pest control method” (E.I. DU PONT DE NEMOURS AND COMPANY, priority 2007, dated 2022).

Test system: cat flea (Ctenocephalides felis)
Assay: Test D: cat flea membrane feeding on treated bovine blood
Type: in vivo
Settings: 72 h
Experimental: For evaluating control of the cat flea (Ctenocephalides felis), a test compound was solubilized in propylene glycol/glycerol formal (60:40) and then diluted in bovine blood to a final test rate of 30 ppm. The treated blood was placed in a tube, and the bottom of the tube was covered with a membrane. Approximately 10 adult cat fleas were allowed to feed through the membrane on the treated blood. The adult fleas were then evaluated for mortality 72 hours later.

## Cc1cc(C2=NOC(c3cc(Cl)cc(Cl)c3)(C(F)(F)F)C2)ccc1C(=O)NCc1ccccn1 (centres unmarked) [Compound 1, 4-[5-(3,5-dichlorophenyl)-4,5-dihydro-5-(trifluoromethyl)-3-isoxazolyl]-2-methyl-N-(2-pyridinylmethyl)benzamide]
  mortality at 30 ppm: ≥ 50%

## CSCCNC(=O)c1ccc(C2=NOC(c3cc(Cl)cc(Cl)c3)(C(F)(F)F)C2)cc1C (centres unmarked) [Compound 2, 4-[5-(3,5-dichlorophenyl)-4,5-dihydro-5-(trifluoromethyl)-3-isoxazolyl]-2-methyl-N-[2-(methylthio)ethyl]benzamide]
  mortality at 30 ppm: ≥ 50%

## Cc1cc(C2=NOC(c3cc(Cl)cc(Cl)c3)(C(F)(F)F)C2)ccc1C(=O)NCC(=O)NCC(F)(F)F (centres unmarked) [Compound 3, 4-[5-(3,5-dichlorophenyl)-4,5-dihydro-5-(trifluoromethyl)-3-isoxazolyl]-2-methyl-N-[2-oxo-2-[(2,2,2-trifluoroethyl)amino]ethyl]benzamide]
  mortality at 30 ppm: ≥ 50%

## Cc1cc(C2=NOC(c3cc(Cl)cc(Cl)c3)(C(F)(F)F)C2)ccc1C(=O)NCC[S+](C)[O-] (centres unmarked) [Compound 5, 4-[5-(3,5-dichlorophenyl)-4,5-dihydro-5-(trifluoromethyl)-3-isoxazolyl]-2-methyl-N-[2-(methylsulfinyl)ethyl]benzamide]
  mortality at 30 ppm: ≥ 50%

## Cc1cc(C2=NOC(c3cc(Cl)cc(Cl)c3)(C(F)(F)F)C2)ccc1C(=O)NCCS(C)(=O)=O (centres unmarked) [Compound 6, 4-[5-(3,5-dichlorophenyl)-4,5-dihydro-5-(trifluoromethyl)-3-isoxazolyl]-2-methyl-N-[2-(methylsulfonyl)ethyl]benzamide]
  mortality at 30 ppm: ≥ 50%
